Measured values published in PubChem BioAssay (NCI).
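The compound was tested at five concentrations on cells cultured in 96-well plates, with a 48-hour exposure period. GI50 = concentration required for 50% inhibition of growth. At the TGI there is no net growth.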

How the values were obtained:
Test in all cases: growth of human tumour cells (NCI), 48 h
[1] = system: CCRF-CEM leukemia
[2] = system: HOP-62 NSCLC
[3] = system: COLO 205 colon
[4] = system: SNB-75 CNS
[5] = system: NCI-H522 lung
[6] = system: LOX IMVI melanoma
[7] = system: MCF7 breast
[8] = system: HCC-2998 colon
[9] = system: UACC-62 melanoma
[10] = system: NCI-H23 lung
[11] = system: PC-3 prostate
[12] = system: SNB-19 CNS
[13] = system: SN12C renal
[14] = system: NCI-H226 lung
[15] = system: SK-MEL-28 melanoma
[16] = system: RXF 393 renal
[17] = system: CAKI-1 renal
[18] = system: SR leukemia
[19] = system: HCT-116 colon
[20] = system: OVCAR-3 ovarian
[21] = system: OVCAR-4 ovarian
[22] = system: OVCAR-8 ovarian
[23] = system: TK-10 renal
[24] = system: SF-539 CNS
[25] = system: IGROV1 ovarian
[26] = system: MDA-MB-231 breast
[27] = system: DU-145 prostate
[28] = system: HT29 colon
[29] = system: MALME-3M melanoma
[30] = system: K-562 leukemia
[31] = system: SK-MEL-5 melanoma
[32] = system: ACHN renal
[33] = system: NCI-H460 lung
[34] = system: UO-31 renal
[35] = system: M14 melanoma
[36] = system: SK-MEL-2 melanoma
[37] = system: MDA-MB-435
[38] = system: RPMI-8226 leukemia
[39] = system: T-47D breast
[40] = system: HOP-92 NSCLC
[41] = system: BT-549 breast
[42] = system: A549 NSCLC
[43] = system: UACC-257 melanoma
[44] = system: 786-0 renal
[45] = system: SK-OV-3 ovarian
[46] = system: OVCAR-5 ovarian
[47] = system: SF-295 CNS
[48] = system: HCT-15 colon
[49] = system: KM12 colon
[50] = system: MOLT-4 leukemia
[51] = system: NCI/ADR-RES ovarian
[52] = system: EKVX NSCLC
[53] = system: A498 renal
[54] = system: U251 CNS
[55] = system: HS 578T breast
[56] = system: SF-268 CNS
[57] = system: SW-620 colon
[58] = system: HL-60(TB) leukemia

CN1CC[C@H](c2c(O)cc(O)c3c(=O)cc(-c4ccccc4Cl)oc23)[C@H](O)C1
TGI [1]: > 10000 nM | GI50 [2]: 51.5 nM | TGI [2]: > 2620 nM | GI50 [3]: 43.3 nM | TGI [3]: 209 nM | GI50 [4]: 53 nM | TGI [4]: 155 nM | GI50 [5]: 102 nM | TGI [5]: 847 nM | GI50 [6]: 6.02 nM | TGI [6]: > 10000 nM | GI50 [7]: 28 nM | TGI [7]: > 10000 nM | GI50 [8]: 124 nM | TGI [8]: 761 nM | GI50 [9]: 51.5 nM | TGI [9]: 164 nM | GI50 [10]: 79.3 nM | TGI [10]: 609 nM | GI50 [11]: 77.6 nM | TGI [11]: > 2590 nM | GI50 [12]: 64.7 nM | TGI [12]: > 10000 nM | GI50 [13]: 70.3 nM | TGI [13]: > 10000 nM | GI50 [14]: 69.5 nM | TGI [14]: 460 nM | TGI [15]: 1300 nM | GI50 [16]: 20.4 nM | TGI [16]: 67.1 nM | TGI [17]: > 10000 nM | GI50 [18]: 4.5 nM | TGI [18]: > 2670 nM | GI50 [19]: 12.3 nM | TGI [19]: > 10000 nM | GI50 [20]: 54.6 nM | TGI [20]: > 10000 nM | GI50 [21]: 140 nM | TGI [21]: 1540 nM | GI50 [22]: 72.3 nM | TGI [22]: > 10000 nM | GI50 [23]: 99.9 nM | TGI [23]: > 10000 nM | GI50 [24]: 139 nM | TGI [24]: 542 nM | GI50 [25]: 41.4 nM | TGI [25]: > 10000 nM | GI50 [26]: 230 nM | TGI [26]: > 10000 nM | GI50 [27]: 75 nM | TGI [27]: > 10000 nM | TGI [28]: > 10000 nM | GI50 [29]: 154 nM | TGI [29]: 594 nM | GI50 [30]: 225 nM | TGI [30]: > 10000 nM | GI50 [31]: 52 nM | TGI [31]: 159 nM | GI50 [32]: 31.6 nM | TGI [32]: > 10000 nM | TGI [33]: > 10000 nM | GI50 [34]: 66.2 nM | TGI [34]: > 10000 nM | GI50 [35]: 69.6 nM | TGI [35]: 293 nM | GI50 [36]: 66.8 nM | TGI [36]: 260 nM | GI50 [37]: 71.2 nM | TGI [37]: 260 nM | GI50 [38]: 76 nM | TGI [38]: > 2320 nM | GI50 [39]: 73.7 nM | TGI [39]: > 2840 nM | GI50 [40]: 69.3 nM | TGI [40]: 524 nM | GI50 [41]: 80.7 nM | TGI [41]: 599 nM | GI50 [42]: 94.6 nM | TGI [42]: > 10000 nM | GI50 [43]: 128 nM | TGI [43]: 910 nM | GI50 [44]: 71.7 nM | TGI [44]: > 10000 nM | GI50 [45]: 490 nM | TGI [45]: > 10000 nM | GI50 [46]: 53.3 nM | TGI [46]: > 10000 nM | GI50 [47]: 210 nM | TGI [47]: 625 nM | TGI [48]: > 10000 nM | TGI [49]: > 10000 nM | GI50 [50]: 76 nM | TGI [50]: > 10000 nM | GI50 [51]: 116 nM | TGI [51]: > 10000 nM | TGI [52]: 559 nM | GI50 [53]: 21.5 nM | TGI [53]: 62 nM | TGI [54]: > 10000 nM | GI50 [55]: 61.8 nM | TGI [55]: 398 nM | GI50 [56]: 64.7 nM | GI50 [57]: 57.2 nM | TGI [57]: > 10000 nM | GI50 [58]: 50.8 nM | TGI [58]: > 2490 nM
